Experimental data from patent publication US9938281B2 (Merck Sharp & Dohme Corp., priority 2012, dated 2018).

Key:
PI3K-delta = biological target: T1, PI3K-delta (Homo sapiens, UniProt O00329); experiment: HTRF PI3K biochemical assay, delta isoform; conditions: form screened (neutral or TFA salt) given, read-out: PI3Kdelta IC50
T1 construct: purchased Upstate; Millipore 14-604

PI3K-alpha = biological target: T2, PI3K-alpha (Homo sapiens, UniProt P42336); experiment: HTRF PI3K biochemical assay, alpha isoform; conditions: ratio PI3K-alpha IC50 value / PI3K-delta IC50 value
T2 construct: purchased Upstate; Millipore 14-602
T2 sequence (P42336 whole entry, canonical isoform): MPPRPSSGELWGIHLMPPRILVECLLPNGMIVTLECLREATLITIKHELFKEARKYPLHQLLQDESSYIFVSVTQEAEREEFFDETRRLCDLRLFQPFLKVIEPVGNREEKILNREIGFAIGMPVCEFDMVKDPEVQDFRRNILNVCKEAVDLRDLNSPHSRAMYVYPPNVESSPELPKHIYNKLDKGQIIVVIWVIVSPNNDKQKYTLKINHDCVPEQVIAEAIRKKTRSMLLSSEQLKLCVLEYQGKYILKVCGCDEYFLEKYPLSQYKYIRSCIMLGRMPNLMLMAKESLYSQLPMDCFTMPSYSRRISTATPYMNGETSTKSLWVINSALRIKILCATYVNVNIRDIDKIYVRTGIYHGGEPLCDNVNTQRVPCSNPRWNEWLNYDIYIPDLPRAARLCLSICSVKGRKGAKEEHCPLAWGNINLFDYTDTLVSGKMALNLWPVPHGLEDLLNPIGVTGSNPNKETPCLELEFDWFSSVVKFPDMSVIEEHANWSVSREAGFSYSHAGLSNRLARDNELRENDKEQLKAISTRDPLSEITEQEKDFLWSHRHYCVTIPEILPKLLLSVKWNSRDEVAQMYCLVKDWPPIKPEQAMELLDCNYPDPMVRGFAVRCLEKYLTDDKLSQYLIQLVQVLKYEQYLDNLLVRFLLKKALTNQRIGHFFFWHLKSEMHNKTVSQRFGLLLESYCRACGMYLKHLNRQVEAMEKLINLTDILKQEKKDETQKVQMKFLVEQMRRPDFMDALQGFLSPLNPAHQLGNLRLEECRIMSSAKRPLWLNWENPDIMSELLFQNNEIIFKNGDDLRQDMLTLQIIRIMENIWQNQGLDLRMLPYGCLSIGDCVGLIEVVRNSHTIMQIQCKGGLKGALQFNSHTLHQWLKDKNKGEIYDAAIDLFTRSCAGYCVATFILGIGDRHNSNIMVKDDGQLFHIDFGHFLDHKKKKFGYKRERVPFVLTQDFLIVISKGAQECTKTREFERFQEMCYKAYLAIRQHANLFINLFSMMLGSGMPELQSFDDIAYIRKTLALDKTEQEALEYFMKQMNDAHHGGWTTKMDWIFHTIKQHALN
T2 sequence (P27986 whole entry partner, canonical isoform): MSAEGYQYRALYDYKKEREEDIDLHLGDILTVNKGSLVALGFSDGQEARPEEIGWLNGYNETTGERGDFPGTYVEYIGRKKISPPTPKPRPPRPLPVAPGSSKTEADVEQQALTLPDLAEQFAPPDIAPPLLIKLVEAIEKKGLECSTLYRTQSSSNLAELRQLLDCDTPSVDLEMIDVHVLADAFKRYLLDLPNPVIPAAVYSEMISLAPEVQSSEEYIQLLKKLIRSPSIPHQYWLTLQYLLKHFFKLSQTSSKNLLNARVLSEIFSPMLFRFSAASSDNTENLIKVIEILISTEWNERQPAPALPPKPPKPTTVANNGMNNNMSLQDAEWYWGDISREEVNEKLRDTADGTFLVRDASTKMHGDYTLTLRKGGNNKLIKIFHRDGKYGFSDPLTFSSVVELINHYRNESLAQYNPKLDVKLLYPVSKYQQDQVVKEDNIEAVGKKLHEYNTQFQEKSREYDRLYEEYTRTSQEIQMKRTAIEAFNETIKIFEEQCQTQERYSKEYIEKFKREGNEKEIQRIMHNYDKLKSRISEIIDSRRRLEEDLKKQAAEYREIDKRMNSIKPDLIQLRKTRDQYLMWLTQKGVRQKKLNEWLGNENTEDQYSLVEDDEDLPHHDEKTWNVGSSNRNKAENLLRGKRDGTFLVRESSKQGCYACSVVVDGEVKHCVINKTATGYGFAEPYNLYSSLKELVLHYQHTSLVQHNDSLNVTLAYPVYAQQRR

T1 sequence (O00329 whole entry, canonical isoform): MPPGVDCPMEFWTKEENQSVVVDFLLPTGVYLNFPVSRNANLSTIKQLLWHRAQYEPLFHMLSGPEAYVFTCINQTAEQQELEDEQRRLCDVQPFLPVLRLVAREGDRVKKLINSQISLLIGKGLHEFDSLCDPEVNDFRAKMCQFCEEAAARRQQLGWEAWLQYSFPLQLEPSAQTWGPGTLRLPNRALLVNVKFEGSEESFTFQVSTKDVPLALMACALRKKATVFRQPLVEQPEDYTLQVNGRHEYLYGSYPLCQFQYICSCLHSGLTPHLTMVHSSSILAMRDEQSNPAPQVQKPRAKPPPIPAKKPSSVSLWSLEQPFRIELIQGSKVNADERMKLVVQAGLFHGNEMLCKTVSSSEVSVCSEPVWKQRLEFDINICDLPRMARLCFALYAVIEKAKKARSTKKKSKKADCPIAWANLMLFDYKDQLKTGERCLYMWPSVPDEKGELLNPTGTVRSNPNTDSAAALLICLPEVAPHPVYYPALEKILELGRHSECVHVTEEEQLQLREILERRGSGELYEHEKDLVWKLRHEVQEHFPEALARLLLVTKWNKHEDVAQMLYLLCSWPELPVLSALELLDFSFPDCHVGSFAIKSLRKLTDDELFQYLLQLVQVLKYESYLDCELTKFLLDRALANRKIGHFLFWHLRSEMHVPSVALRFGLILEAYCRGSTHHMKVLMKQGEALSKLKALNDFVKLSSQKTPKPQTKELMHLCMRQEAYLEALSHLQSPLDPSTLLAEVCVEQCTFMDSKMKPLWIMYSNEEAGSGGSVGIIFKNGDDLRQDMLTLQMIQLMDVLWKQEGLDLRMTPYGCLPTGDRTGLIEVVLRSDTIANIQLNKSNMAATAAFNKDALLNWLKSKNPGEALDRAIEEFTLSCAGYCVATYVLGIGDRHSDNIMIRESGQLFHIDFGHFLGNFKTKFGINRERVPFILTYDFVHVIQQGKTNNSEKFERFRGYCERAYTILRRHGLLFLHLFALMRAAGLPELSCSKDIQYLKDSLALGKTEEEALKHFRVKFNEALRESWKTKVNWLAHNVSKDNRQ
T1 sequence (P27986 whole entry partner, canonical isoform): as the sequence (P27986 whole entry partner, canonical isoform) above

Structure (SMILES)	IC50 (PI3K-delta) [nM]	Selectivity versus PI3Kalpha (PI3K-alpha)
CCn1c(-c2cnc(C)nc2)nc2c(N[C@H]3CC[C@H](C(=O)N4CCC4)C3)ncnc21 [Compound 5-2, N-[(1S,3S)-3-(azetidin-1-ylcarbonyl)cyclopentyl]-9-ethyl-8-(2-methylpyrimidin-5-yl)-9H-purin-6-amine]	35	>10
CCn1c(-c2cnc(C)nc2)nc2c(N[C@H]3CC[C@@H](C(=O)OC)C3)ncnc21 [Compound 5-3, methyl (1R,3S)-3-{[9-ethyl-8-(2-methylpyrimidin-5-yl)-9H-purin-6-yl]amino}cyclopentanecarboxyl-ate]	32	>10
CCn1c(-c2cnc(C)nc2)nc2c(N[C@H]3CC[C@@H](C(=O)N(C)C)C3)ncnc21 [Compound 5-4, (1R,3S)-3-{[9-ethyl-8-(2-methylpyrimidin-5-yl)-9H-purin-6-yl]amino}-N,N-dimethylcyclopentanecarbox-amide]	5.3	>10
CCn1c(-c2cnc(C)nc2)nc2c(N[C@H]3CC[C@@H](C(=O)N(C)C4CC4)C3)ncnc21 [Compound 5-5, (1R,3S)-N-cyclopropyl-3-{[9-ethyl-8-(2-methylpyrimidin-5-yl)-9H-purin-6-yl]amino}-N-methylcyclopentanecarboxamide]	3.7	>10
CCn1c(-c2cnc(C)nc2)nc2c(N[C@H]3CC[C@@H](C(=O)N4CCC4)C3)ncnc21 [Compound 5-6, N-[(1S,3R)-3-(azetidin-1-ylcarbonyl)cyclopentyl]-9-ethyl-8-(2-methylpyrimidin-5-yl)-9H-purin-6-amine]	11	>10
CCn1c(-c2cnc(C)nc2)nc2c(N[C@H]3CC[C@@H](C(=O)NC)C3)ncnc21 [Compound 5-7]	120	>10
CCn1c(C(=O)NCC2CC2)nc2c(N[C@H]3CCN(C(=O)C4CC4)C3)ncnc21 [Compound 6-1, 6-{[(3S)-1-(cyclopropylcarbonyl)pyrrolidin-3-yl]amino}-N-(cyclopropylmethyl)-9-ethyl-9H-purine-8-carboxamide]	20	>10
CCn1c(C(=O)NCCOC)nc2c(N[C@H]3CCN(C(=O)C4CC4)C3)ncnc21 [Compound 6-2, 6-{[(3S)-1-(cyclopropylcarbonyl)pyrrolidin-3-yl]amino}-9-ethyl-N-(2-methoxyethyl)-9H-purine-8-carboxamide]	85	>10
CCn1c(C(=O)NCC(F)(F)F)nc2c(N[C@H]3CCN(C(=O)C4CC4)C3)ncnc21 [Compound 6-3, 6-{[(3S)-1-(cyclopropylcarbonyl)pyrrolidin-3-yl]amino}-9-ethyl-N-(2,2,2-trifluoroethyl)-9H-purine-8-carboxamide]	6.7	>10
CCn1c(C(=O)N2CCOCC2)nc2c(N[C@H]3CCN(C(=O)C4CC4)C3)ncnc21 [Compound 6-4, N-[(3S)-1-(cyclopropylcarbonyl)pyrrolidin-3-yl]-9-ethyl-8-(morpholin-4-ylcarbonyl)-9H-purin-6-amine]	140	>10
CCn1c(C(=O)N(C)C)nc2c(N[C@H]3CCN(C(=O)C4CC4)C3)ncnc21 [Compound 6-5, 6-{[(3S)-1-(cyclopropylcarbonyl)pyrrolidin-3-yl]amino}-9-ethyl-N,N-dimethyl-9H-purine-8-carboxamide]	800	>10
CCn1c(C(=O)NC2COC2)nc2c(N[C@H]3CCN(C(=O)C4CC4)C3)ncnc21 [Compound 6-6, 6-{[(3S)-1-(cyclopropylcarbonyl)pyrrolidin-3-yl]amino}-9-ethyl-N-oxetan-3-yl-9H-purine-8-carboxamide]	62	>10
CCn1c(C(=O)N[C@H]2CC[C@H](O)CC2)nc2c(N[C@H]3CCN(C(=O)C4CC4)C3)ncnc21 [Compound 6-7, 6-{[(3S)-1-(cyclopropylcarbonyl)pyrrolidin-3-yl]amino}-9-ethyl-N-(trans-4-hydroxycyclohexyl)-9H-purine-8-carboxamide]	19	>10
CCn1c(C(=O)N2CCCC2)nc2c(N[C@H]3CCN(C(=O)C4CC4)C3)ncnc21 [Compound 6-8, N-[(3S)-1-(cyclopropylcarbonyl)pyrrolidin-3-yl]-9-ethyl-8-(pyrrolidin-1-ylcarbonyl)-9H-purin-6-amine]	72	>10
CCn1c(C(=O)NCC(F)(F)F)nc2c(N[C@H]3CCN(C(=O)C4CCC4)C3)ncnc21 [Compound 6-9, 6-{[(3S)-1-(cyclobutylcarbonyl)pyrrolidin-3-yl]amino}-9-ethyl-N-(2,2,2-trifluoroethyl)-9H-purine-8-carboxamide]	3.3	>10
CCn1c(C(=O)NCC(F)(F)F)nc2c(N[C@H]3CCN(c4ccccn4)C3)ncnc21 [Compound 6-10, 9-ethyl-6-{[(3S)-1-pyridin-2-ylpyrrolidin-3-yl]amino}-N-(2,2,2-trifluoroethyl)-9H-purine-8-carboxamide]	16	>10

Structure (SMILES)	IC50 (PI3K-delta) [nM]	Selectivity versus PI3Kalpha (PI3K-alpha)
CCn1c(C(N)=O)nc2c(N[C@H]3CCN(C(=O)C4CC4)C3)ncnc21 [Compound 6-11, 6-{[(3S)-1-(cyclopropylcarbonyl)pyrrolidin-3-yl]amino}-9-ethyl-9H-purine-8-carboxamide]	73	>10
CCn1c(C(=O)N[C@@H](C)C2CC2)nc2c(N[C@H]3CCN(C(=O)C4CC4)C3)ncnc21 [Compound 6-12, 6-{[(3S)-1-(cyclopropylcarbonyl)pyrrolidin-3-yl]amino}-N-[(1S)-1-cyclopropylethyl]-9-ethyl-9H-purine-8-carboxamide]	25	>10
CCn1c(C(=O)N[C@H](C)C2CC2)nc2c(N[C@H]3CCN(C(=O)C4CC4)C3)ncnc21 [Compound 6-13, 6-{[(3S)-1-(cyclopropylcarbonyl)pyrrolidin-3-yl]amino}-N-[(1R)-1-cyclopropylethyl]-9-ethyl-9H-purine-8-carboxamide]	12	>10
CCn1c(C(=O)NC2CCCCC2)nc2c(N[C@H]3CCN(C(=O)C4CC4)C3)ncnc21 [Compound 6-14, N-cyclohexyl-6-{[(3S)-1-(cyclopropylcarbonyl)pyrrolidin-3-yl]amino}-9-ethyl-9H-purine-8-carboxamide]	17	>10
CCn1c(C(=O)N(C)CC(F)(F)F)nc2c(N[C@H]3CCN(C(=O)C4CC4)C3)ncnc21 [Compound 6-15, 6-{[(3S)-1-(cyclopropylcarbonyl)pyrrolidin-3-yl]amino}-9-ethyl-N-methyl-N-(2,2,2-trifluoroethyl)-9H-purine-8-carboxamide]	230	>10
CCn1c(C(=O)NC(C)(C)C)nc2c(N[C@H]3CCN(C(=O)C4CC4)C3)ncnc21 [Compound 6-16, N-tert-butyl-6-{[(3S)-1-(cyclopropylcarbonyl)pyrrolidin-3-yl]amino}-9-ethyl-9H-purine-8-carboxamide]	20	>10
CCn1c(C(=O)NCCC(F)(F)F)nc2c(N[C@H]3CCN(C(=O)C4CC4)C3)ncnc21 [Compound 6-17, 6-{[(3S)-1-(cyclopropylcarbonyl)pyrrolidin-3-yl]amino}-9-ethyl-N-(3,3,3-trifluoropropyl)-9H-purine-8-carboxamide]	14	>10
CCn1c(C(=O)Nc2ccccc2)nc2c(N[C@H]3CCN(C(=O)C4CC4)C3)ncnc21 [Compound 6-18, 6-{[(3S)-1-(cyclopropylcarbonyl)pyrrolidin-3-yl]amino}-9-ethyl-N-phenyl-9H-purine-8-carboxamide]	15	>10
CCNC(=O)c1nc2c(N[C@H]3CCN(C(=O)C4CC4)C3)ncnc2n1CC [Compound 6-19, 6-{[(3S)-1-(cyclopropylcarbonyl)pyrrolidin-3-yl]amino}-N,9-diethyl-9H-purine-8-carboxamide]	31	>10
CCn1c(C(=O)Nc2ccccn2)nc2c(N[C@H]3CCN(C(=O)C4CC4)C3)ncnc21 [Compound 6-20, 6-{[(3S)-1-(cyclopropylcarbonyl)pyrrolidin-3-yl]amino}-9-ethyl-N-pyridin-2-yl-9H-purine-8-carboxamide]	23	>10
CCn1c(C(=O)Nc2cccnc2)nc2c(N[C@H]3CCN(C(=O)C4CC4)C3)ncnc21 [Compound 6-21, 6-{[(3S)-1-(cyclopropylcarbonyl)pyrrolidin-3-yl]amino}-9-ethyl-N-pyridin-3-yl-9H-purine-8-carboxamide]	17	>10
CCn1c(CC2CC2)nc2c(N[C@H]3CCN(C(=O)C4CC4)C3)ncnc21 [Compound 7-1, N-[(3S)-1-(cyclopropylcarbonyl)pyrrolidin-3-yl]-8-(cyclopropylmethyl)-9-ethyl-9H-purin-6-amine]	47	>10
CCC(=O)N1CC[C@H](Nc2ncnc3c2nc(CC(C)C)n3CC)C1 [Compound 7-2, 9-ethyl-8-(2-methylpropyl)-N-[(3S)-1-propanoylpyrrolidin-3-yl]-9H-purin-6-amine]	51	>10
CCC(=O)N1CC[C@H](Nc2ncnc3c2nc(CC(C)C)n3C)C1 [Compound 7-3, 9-methyl-8-(2-methylpropyl)-N-[(3S)-1-propanoylpyrrolidin-3-yl]-9H-purin-6-amine]	140	>10
CCC(=O)N1CC[C@H](Nc2ncnc3c2nc(C)n3CC)C1 [Compound 7-4, 9-ethyl-8-methyl-N-[(3S)-1-propanoylpyrrolidin-3-yl]-9H-purin-6-amine]	500	>10
